# Laboratory results from the kinase profiling compilation of Christmann-Franck et al. (2016).
# Legend:
# Experiment in all cases: KINOMEscan competition binding
# Details in all cases: compound 10.0 µM
# INSRR (human) = INSRR (human) (UniProt P14616)
# PTK2 (human) = PTK2 (human) (UniProt Q05397)
# MTOR (human) = MTOR (human) (UniProt P42345)
# TEC (human) = TEC (human) (UniProt P42680)
# DSTYK (human) = DSTYK (human) (UniProt Q6XUX3)
# FGFR2 (human) = FGFR2 (human) (UniProt P21802)
# PTK6 (human) = PTK6 (human) (UniProt Q13882)
# PIM1 (human) = PIM1 (human) (UniProt P11309)
# SRC (human) = SRC (human) (UniProt P12931)
# GRK4 (human) = GRK4 (human) (UniProt P32298)
# SYK (human) = SYK (human) (UniProt P43405)
# PIP5K1C (human) = PIP5K1C (human) (UniProt O60331)
# AURKC (human) = AURKC (human) (UniProt Q9UQB9)
# PRKCE (human) = PRKCE (human) (UniProt Q02156)
# MAP3K13 (human) = MAP3K13 (human) (UniProt O43283)
# CDK9 (human) = CDK9 (human) (UniProt P50750)
# PIK3C2B (human) = PIK3C2B (human) (UniProt O00750)
# PRKACB (human) = PRKACB (human) (UniProt P22694)
# DMPK (human) = DMPK (human) (UniProt Q09013)
# MAP2K7 (human) = MAP2K7 (human) (UniProt O14733)
# ANKK1 (human) = ANKK1 (human) (UniProt Q8NFD2)
# MAPK8 (human) = MAPK8 (human) (UniProt P45983)
# EPHB6 (human) = EPHB6 (human) (UniProt O15197)
# PRKCQ (human) = PRKCQ (human) (UniProt Q04759)
# HIPK4 (human) = HIPK4 (human) (UniProt Q8NE63)
# MAP3K1 (human) = MAP3K1 (human) (UniProt Q13233)
# [1] = tested on: ABL1 (human), P00519 [Y253F]
# MAP3K5 (human) = MAP3K5 (human) (UniProt Q99683)
# CDK4 CCND3 (human) = CDK4 CCND3 (human) (UniProt P11802+P30281)
# BMPR1A (human) = BMPR1A (human) (UniProt P36894)
# MINK1 (human) = MINK1 (human) (UniProt Q8N4C8)
# FLT1 (human) = FLT1 (human) (UniProt P17948)
# PRPF4B (human) = PRPF4B (human) (UniProt Q13523)
# CLK2 (human) = CLK2 (human) (UniProt P49760)
# RAF1 (human) = RAF1 (human) (UniProt P04049)
# CSNK2A1 (human) = CSNK2A1 (human) (UniProt P68400)
# CDC2L2 (human) = CDC2L2 (human) (UniProt Q9UQ88)
# EIF2AK1 (human) = EIF2AK1 (human) (UniProt Q9BQI3)
# MAP3K9 (human) = MAP3K9 (human) (UniProt P80192)
# ITK (human) = ITK (human) (UniProt Q08881)
# MAP4K2 (human) = MAP4K2 (human) (UniProt Q12851)
# MAP3K11 (human) = MAP3K11 (human) (UniProt Q16584)
# Chain of ITK (human) (Q08881 whole entry, looked up): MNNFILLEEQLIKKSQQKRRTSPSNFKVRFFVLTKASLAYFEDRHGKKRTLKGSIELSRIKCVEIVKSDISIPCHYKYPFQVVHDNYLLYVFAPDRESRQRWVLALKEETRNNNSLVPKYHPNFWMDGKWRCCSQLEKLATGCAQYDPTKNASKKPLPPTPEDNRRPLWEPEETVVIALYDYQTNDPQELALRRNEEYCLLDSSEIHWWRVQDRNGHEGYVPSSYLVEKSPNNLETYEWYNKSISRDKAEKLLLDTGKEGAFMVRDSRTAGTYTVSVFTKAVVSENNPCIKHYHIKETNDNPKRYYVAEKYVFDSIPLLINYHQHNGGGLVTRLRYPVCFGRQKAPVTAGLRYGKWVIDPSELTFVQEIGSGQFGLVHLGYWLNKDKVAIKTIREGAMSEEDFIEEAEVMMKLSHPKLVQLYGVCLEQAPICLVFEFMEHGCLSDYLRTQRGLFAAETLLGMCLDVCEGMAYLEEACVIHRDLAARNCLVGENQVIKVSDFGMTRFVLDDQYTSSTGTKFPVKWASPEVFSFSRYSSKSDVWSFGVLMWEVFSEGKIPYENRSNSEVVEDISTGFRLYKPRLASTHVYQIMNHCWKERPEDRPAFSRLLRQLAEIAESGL
# Chain of CDC2L2 (human) (Q9UQ88 whole entry, looked up): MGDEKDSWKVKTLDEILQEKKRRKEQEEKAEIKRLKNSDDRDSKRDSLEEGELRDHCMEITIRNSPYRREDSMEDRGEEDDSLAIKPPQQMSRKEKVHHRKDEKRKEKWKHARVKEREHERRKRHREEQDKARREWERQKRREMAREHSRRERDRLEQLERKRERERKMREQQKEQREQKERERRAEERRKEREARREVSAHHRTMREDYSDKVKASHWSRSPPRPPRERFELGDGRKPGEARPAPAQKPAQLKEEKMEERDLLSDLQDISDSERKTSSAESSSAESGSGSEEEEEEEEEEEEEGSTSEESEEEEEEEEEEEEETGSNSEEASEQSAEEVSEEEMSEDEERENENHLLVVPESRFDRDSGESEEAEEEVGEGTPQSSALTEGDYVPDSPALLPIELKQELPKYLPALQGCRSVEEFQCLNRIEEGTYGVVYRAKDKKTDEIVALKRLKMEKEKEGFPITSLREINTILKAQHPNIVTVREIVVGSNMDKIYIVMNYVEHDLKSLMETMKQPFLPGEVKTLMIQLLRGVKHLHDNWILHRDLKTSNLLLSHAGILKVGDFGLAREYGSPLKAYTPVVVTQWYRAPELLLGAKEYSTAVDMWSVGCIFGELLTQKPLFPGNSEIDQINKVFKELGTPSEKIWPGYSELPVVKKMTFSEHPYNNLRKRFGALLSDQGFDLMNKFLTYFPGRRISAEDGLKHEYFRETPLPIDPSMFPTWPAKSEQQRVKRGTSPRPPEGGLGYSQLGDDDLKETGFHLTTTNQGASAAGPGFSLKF
# Chain of MAP3K1 (human) (Q13233 whole entry, looked up): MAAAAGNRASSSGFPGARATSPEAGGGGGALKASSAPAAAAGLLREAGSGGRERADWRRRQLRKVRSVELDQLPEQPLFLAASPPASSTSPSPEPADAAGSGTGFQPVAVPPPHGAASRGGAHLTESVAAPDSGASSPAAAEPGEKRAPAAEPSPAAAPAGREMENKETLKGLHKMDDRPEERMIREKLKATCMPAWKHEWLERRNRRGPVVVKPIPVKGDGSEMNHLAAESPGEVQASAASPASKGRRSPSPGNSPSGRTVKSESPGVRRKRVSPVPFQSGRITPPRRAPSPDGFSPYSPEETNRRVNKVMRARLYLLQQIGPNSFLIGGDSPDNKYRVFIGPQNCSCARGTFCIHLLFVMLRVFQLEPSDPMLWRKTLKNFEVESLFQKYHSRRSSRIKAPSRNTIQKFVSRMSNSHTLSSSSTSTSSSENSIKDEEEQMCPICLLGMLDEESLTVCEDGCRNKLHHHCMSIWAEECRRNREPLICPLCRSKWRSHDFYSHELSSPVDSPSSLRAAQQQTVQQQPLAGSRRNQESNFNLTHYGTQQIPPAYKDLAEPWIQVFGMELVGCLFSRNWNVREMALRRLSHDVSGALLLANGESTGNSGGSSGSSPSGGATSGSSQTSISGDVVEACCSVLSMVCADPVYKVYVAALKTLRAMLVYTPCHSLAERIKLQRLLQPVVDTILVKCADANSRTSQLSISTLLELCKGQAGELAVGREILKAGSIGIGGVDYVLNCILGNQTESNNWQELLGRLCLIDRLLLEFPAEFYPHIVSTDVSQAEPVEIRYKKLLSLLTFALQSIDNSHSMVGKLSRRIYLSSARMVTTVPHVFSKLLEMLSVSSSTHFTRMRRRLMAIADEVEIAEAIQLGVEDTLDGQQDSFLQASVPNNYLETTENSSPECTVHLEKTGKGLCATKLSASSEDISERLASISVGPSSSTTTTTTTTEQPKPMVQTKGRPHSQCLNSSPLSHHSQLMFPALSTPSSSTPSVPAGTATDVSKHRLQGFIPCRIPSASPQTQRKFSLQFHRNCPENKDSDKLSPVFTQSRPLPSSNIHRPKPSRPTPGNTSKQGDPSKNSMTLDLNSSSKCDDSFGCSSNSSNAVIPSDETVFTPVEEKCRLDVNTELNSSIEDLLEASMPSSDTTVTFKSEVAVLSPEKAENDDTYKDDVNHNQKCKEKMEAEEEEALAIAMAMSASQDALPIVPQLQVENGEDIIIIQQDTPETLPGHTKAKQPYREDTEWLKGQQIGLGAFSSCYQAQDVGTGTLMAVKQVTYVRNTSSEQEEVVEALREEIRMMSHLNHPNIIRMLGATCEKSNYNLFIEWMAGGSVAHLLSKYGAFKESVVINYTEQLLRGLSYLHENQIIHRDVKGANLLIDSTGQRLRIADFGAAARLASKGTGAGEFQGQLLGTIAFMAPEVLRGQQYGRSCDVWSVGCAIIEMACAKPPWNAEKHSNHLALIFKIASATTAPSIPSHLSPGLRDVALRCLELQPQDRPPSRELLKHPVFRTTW
# Chain of TEC (human) (P42680 whole entry, looked up): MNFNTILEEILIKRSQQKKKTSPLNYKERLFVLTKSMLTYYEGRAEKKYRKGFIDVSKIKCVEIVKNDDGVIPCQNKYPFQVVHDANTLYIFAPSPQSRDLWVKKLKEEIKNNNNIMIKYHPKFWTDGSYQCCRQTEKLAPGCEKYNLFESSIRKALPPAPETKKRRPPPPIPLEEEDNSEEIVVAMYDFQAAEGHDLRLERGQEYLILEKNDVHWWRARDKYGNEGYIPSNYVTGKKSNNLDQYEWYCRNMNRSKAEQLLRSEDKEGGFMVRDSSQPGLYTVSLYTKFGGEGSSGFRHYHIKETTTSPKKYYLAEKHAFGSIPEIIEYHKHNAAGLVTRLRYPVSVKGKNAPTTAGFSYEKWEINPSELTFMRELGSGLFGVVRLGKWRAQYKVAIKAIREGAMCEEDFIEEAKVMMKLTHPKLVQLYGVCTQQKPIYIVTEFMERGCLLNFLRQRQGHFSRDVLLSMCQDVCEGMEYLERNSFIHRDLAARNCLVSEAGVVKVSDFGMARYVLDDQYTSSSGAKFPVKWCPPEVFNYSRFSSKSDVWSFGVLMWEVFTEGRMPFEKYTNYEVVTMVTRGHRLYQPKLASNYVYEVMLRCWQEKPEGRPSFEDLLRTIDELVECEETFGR
# Chain of DSTYK (human) (Q6XUX3 whole entry, looked up): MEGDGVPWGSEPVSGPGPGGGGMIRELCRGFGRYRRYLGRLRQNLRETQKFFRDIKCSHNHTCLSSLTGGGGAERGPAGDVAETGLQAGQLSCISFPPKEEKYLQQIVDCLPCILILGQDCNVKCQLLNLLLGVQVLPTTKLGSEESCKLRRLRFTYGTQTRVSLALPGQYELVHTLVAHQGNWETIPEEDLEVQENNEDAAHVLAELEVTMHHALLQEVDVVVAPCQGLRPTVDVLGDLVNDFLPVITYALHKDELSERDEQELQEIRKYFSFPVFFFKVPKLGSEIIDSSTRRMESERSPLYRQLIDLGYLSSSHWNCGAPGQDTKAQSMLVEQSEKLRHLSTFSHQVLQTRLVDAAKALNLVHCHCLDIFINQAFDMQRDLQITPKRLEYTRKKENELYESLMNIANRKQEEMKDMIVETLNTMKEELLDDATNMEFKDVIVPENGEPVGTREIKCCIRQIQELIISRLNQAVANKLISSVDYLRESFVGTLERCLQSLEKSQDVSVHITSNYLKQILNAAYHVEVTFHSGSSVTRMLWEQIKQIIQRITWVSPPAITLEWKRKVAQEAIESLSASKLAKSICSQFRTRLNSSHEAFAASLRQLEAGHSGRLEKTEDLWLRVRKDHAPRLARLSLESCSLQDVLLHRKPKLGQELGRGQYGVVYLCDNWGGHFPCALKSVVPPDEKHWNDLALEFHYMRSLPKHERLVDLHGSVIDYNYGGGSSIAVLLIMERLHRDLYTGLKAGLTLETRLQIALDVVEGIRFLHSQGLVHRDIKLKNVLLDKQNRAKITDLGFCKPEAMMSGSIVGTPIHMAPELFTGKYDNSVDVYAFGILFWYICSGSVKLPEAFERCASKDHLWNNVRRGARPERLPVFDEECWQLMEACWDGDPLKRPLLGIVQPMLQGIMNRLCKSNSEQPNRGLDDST
# Chain of BMPR1A (human) (P36894 whole entry, looked up): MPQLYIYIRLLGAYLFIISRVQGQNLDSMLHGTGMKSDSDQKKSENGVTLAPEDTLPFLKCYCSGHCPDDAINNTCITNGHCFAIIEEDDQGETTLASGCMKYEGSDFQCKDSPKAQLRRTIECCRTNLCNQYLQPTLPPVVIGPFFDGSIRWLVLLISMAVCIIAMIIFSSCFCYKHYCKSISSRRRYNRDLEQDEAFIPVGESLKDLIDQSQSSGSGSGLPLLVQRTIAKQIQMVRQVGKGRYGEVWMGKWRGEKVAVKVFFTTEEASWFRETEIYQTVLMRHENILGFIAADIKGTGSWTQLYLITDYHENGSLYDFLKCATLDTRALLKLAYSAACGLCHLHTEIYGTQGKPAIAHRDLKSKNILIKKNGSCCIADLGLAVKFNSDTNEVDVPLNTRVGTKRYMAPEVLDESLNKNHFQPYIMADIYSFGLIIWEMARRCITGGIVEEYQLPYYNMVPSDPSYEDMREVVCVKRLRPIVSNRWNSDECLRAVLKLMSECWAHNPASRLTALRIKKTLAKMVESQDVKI
smiles,measurement,setting,value
Cc1cc([C@@H](C)Nc2ccccc2C(=O)O)c2nc(N3CCOCC3)cc(=O)n2c1,"kinase still bound, per cent of control",INSRR (human),100%
same,"kinase still bound, per cent of control",PTK2 (human),80%
same,"kinase still bound, per cent of control",MTOR (human),18%
same,"kinase still bound, per cent of control",TEC (human),91%
same,"kinase still bound, per cent of control",DSTYK (human),90%
same,"kinase still bound, per cent of control",FGFR2 (human),100%
same,"kinase still bound, per cent of control",PTK6 (human),15%
same,"kinase still bound, per cent of control",PIM1 (human),100%
same,"kinase still bound, per cent of control",SRC (human),100%
same,"kinase still bound, per cent of control",GRK4 (human),80%
same,"kinase still bound, per cent of control",SYK (human),90%
same,"kinase still bound, per cent of control",PIP5K1C (human),55%
same,"kinase still bound, per cent of control",AURKC (human),91%
same,"kinase still bound, per cent of control",PRKCE (human),100%
same,"kinase still bound, per cent of control",MAP3K13 (human),100%
same,"kinase still bound, per cent of control",CDK9 (human),89%
same,"kinase still bound, per cent of control",PIK3C2B (human),1%
same,"kinase still bound, per cent of control",PRKACB (human),62%
same,"kinase still bound, per cent of control",DMPK (human),95%
same,"kinase still bound, per cent of control",MAP2K7 (human),100%
same,"kinase still bound, per cent of control",ANKK1 (human),100%
same,"kinase still bound, per cent of control",MAPK8 (human),100%
same,"kinase still bound, per cent of control",EPHB6 (human),40%
same,"kinase still bound, per cent of control",PRKCQ (human),100%
same,"kinase still bound, per cent of control",HIPK4 (human),56%
same,"kinase still bound, per cent of control",MAP3K1 (human),100%
same,"kinase still bound, per cent of control",[1],100%
same,"kinase still bound, per cent of control",MAP3K5 (human),100%
same,"kinase still bound, per cent of control",CDK4 CCND3 (human),62%
same,"kinase still bound, per cent of control",BMPR1A (human),79%
same,"kinase still bound, per cent of control",MINK1 (human),100%
same,"kinase still bound, per cent of control",FLT1 (human),96%
same,"kinase still bound, per cent of control",PRPF4B (human),100%
same,"kinase still bound, per cent of control",CLK2 (human),100%
same,"kinase still bound, per cent of control",RAF1 (human),97%
same,"kinase still bound, per cent of control",CSNK2A1 (human),66%
same,"kinase still bound, per cent of control",CDC2L2 (human),100%
same,"kinase still bound, per cent of control",EIF2AK1 (human),100%
same,"kinase still bound, per cent of control",MAP3K9 (human),100%
same,"kinase still bound, per cent of control",ITK (human),100%
same,"kinase still bound, per cent of control",MAP4K2 (human),97%
same,"kinase still bound, per cent of control",MAP3K11 (human),95%
